Experimental data from patent US8372871B2, “Histidinol dehydrogenase inhibitors, and use thereof as medicaments” (priority 2008, dated 2013).

SMILES | melting point
N[C@@H](Cc1c[nH]cn1)C(=O)Cc1ccc(-c2ccc(Br)cc2)cc1 (hydrate or solvate) | 199 °C (dec.)
N[C@@H](Cc1c[nH]cn1)C(=O)Cc1ccc(-c2ccc(-c3ccccc3)cc2)cc1 (hydrate or solvate) | 200 °C (dec.)
N[C@@H](Cc1c[nH]cn1)C(=O)Cc1ccc(/C=C/c2ccc(-c3ccccc3)cc2)cc1 (hydrate or solvate) | 200 °C (dec.)
N[C@@H](Cc1c[nH]cn1)C(=O)Cc1ccc(C#Cc2ccc(-c3ccccc3)cc2)cc1 (hydrate or solvate) | 196 °C (dec.)
Cc1ccc(-c2ccc(CC(=O)[C@@H](N)Cc3c[nH]cn3)cc2)cc1 (hydrate or solvate) [Compound 2a, (3S)-3-amino-4-(1H-imidazol-4-yl)-1-(4′-methylbiphenyl-4-yl)butan-2-one dihydrochlorhydrate] | 203 °C (dec.)
CCCCc1ccc(-c2ccc(CC(=O)[C@@H](N)Cc3c[nH]cn3)cc2)cc1 (hydrate or solvate) [Compound 2b, (3S)-3-amino-1-(4′-butylbiphenyl-4-yl)-4-(1H-imidazol-4-yl) butan-2-one dihydrochlorhydrate] | 155 °C (dec.)
COc1ccc(-c2ccc(CC(=O)[C@@H](N)Cc3c[nH]cn3)cc2)cc1 (hydrate or solvate) [Compound 2c, (3S)-3-amino-4-(1H-imidazol-4-yl)-1-(4′-methoxybiphenyl-4-yl)butan-2-one dihydrochlorhydrate] | 210 °C (dec.)
N[C@@H](Cc1c[nH]cn1)C(=O)Cc1ccc(-c2ccc(C(F)(F)F)cc2)cc1 (hydrate or solvate) [Compound 2d, (3S)-3-amino-4-(1H-imidazol-4-yl)-1-[4′-(trifluoromethyl)biphenyl-4-yl]butan-2-one dihydrochlorhydrate] | 149 °C (dec.)
N[C@@H](Cc1c[nH]cn1)C(=O)Cc1ccc(-c2ccc(Oc3ccccc3)cc2)cc1 (hydrate or solvate) [Compound 2f, (3S)-3-amino-4-(1H-imidazol-4-yl)-1-(4′-phenoxybiphenyl-4-yl)butan-2-one dihydrochlorhydrate] | 198 to 200 °C
N[C@@H](Cc1c[nH]cn1)C(=O)Cc1ccc(-c2ccc3ccccc3c2)cc1 (hydrate or solvate) [Compound 2h, (3S)-3-amino-4-(1H-imidazol-4-yl)-1-[4-(2-naphthhyl)phenyl] butan-2-one dihydrochlorhydrate] | 205 °C (dec.)
N[C@@H](Cc1c[nH]cn1)C(=O)Cc1ccc(CCc2ccccc2)cc1 (hydrate or solvate) [Compound 2i, (3S)-3-amino-4-(1H-imidazol-4-yl)-1-[4-(2-phenylethyl)phenyl] butan-2-one dihydrochlorhydrate] | 168 to 170 °C
N[C@@H](Cc1c[nH]cn1)C(=O)Cc1ccc(/C=C/c2ccccc2)cc1 (hydrate or solvate) [Compound 2j, (3S)-3-amino-4-(1H-imidazol-4-yl)-1-{4-[(E)-2-phenylvinyl]phenyl}butan-2-one dihydrochlorhydrate] | 195 °C (dec.)
Cc1ccc(/C=C/c2ccc(CC(=O)[C@@H](N)Cc3c[nH]cn3)cc2)cc1 (hydrate or solvate) [Compound 2k, (3S)-3-amino-4-(1H-imidazol-4-yl)-1-{4-[(E)-2-(4-methylphenyl)vinyl]phenyl}butan-2-one dihydrochlorhydrate] | 200 °C (dec.)
N[C@@H](Cc1c[nH]cn1)C(=O)Cc1ccc(/C=C/c2ccc(C(F)(F)F)cc2)cc1 (hydrate or solvate) [Compound 2l, (3S)-3-amino-4-(1H-imidazol-4-yl)-1-(4-{(E)-2-[4-(trifluoromethyl)phenyl]vinyl}phenyl) butan-2-one dihydrochlorhydrate] | 186 °C (dec.)
N[C@@H](Cc1c[nH]cn1)C(=O)Cc1ccc(/C=C/Cc2ccccc2)cc1 (hydrate or solvate) [Compound 2m, (3S)-3-amino-4-(1H-imidazol-4-yl)-1-{4-[(1E)-3-phenylprop-1-en-1-yl]phenyl}butan-2-one dihydrochlorhydrate] | 178 to 180 °C
